Earlier results on 1 substance are cited in patent publication US8372452B2, “Oral herbal composition for the treatment of oral candidiasis” (Piramal Life Sciences Limited, priority 2008, dated 2013).

This data set relates to oral pathogens (Enterococcus faecalis, Streptococcus salivarius, Streptococcus mitis, Streptococcus mutans, Streptococcus sobrinus, Streptococcus sanguinis and …). The conditions noted are these: literature report, Silva M L et al. 2007.

Consider (−)-cubebin, for which the “activity against oral pathogens (microorganisms)” value was “exhibited activity”.
